Reference: patent publication US6552196B2, “Quinolone carboxylic acid derivatives” (Dong Wha Pharmaceutical Industrial Co., Ltd., priority 1997, dated 2003)
In brackets after ≈: the same amount, converted by molar mass.

What was measured:
Type in all cases: cell-based
[1] = test system: Staphylococcus aureus 692E; assay: In vitro antibacterial activity against resistant strains (MIC); conditions: resistant strain Staphylococcus aureus 692E; 2-fold agar dilution; methicillin resistant strains 48 hours at 30° C.; read-out: minimum inhibitory concentration (MIC)
Protocol: (§1) 10^7 cfu/ml of bacteria were inoculated and cultured for 18 hours at 37° C. and then the antibacterial activities were measured. For the methicillin resistant strains the activities were measured after 48 hours of cultivation at 30° C. Hoechst Standard strains were used for the testings.

[2] = test system: Staphylococcus aureus 241; assay: as above; conditions: resistant strain Staphylococcus aureus 241; 2-fold agar dilution; methicillin resistant strains 48 hours at 30° C.; read-out: minimum inhibitory concentration (MIC)
Protocol: as §1

[3] = test system: Staphylococcus epidermidis 178; assay: as above; conditions: resistant strain Staphylococcus epidermidis 178; 2-fold agar dilution; methicillin resistant strains 48 hours at 30° C.; read-out: minimum inhibitory concentration (MIC)
Protocol: as §1

[4] = test system: Staphylococcus aureus 293; assay: as above; conditions: resistant strain Staphylococcus aureus 293; 2-fold agar dilution; methicillin resistant strains 48 hours at 30° C.; read-out: minimum inhibitory concentration (MIC)
Protocol: as §1

[5] = test system: Staphylococcus aureus 697E; assay: as above; conditions: resistant strain Staphylococcus aureus 697E; 2-fold agar dilution; methicillin resistant strains 48 hours at 30° C.; read-out: minimum inhibitory concentration (MIC)
Protocol: as §1

[6] = test system: Staphylococcus aureus 703E; assay: as above; conditions: resistant strain Staphylococcus aureus 703E; 2-fold agar dilution; methicillin resistant strains 48 hours at 30° C.; read-out: minimum inhibitory concentration (MIC)
Protocol: as §1

[7] = test system: Staphylococcus aureus 8236; assay: as above; conditions: resistant strain Staphylococcus aureus 8236; 2-fold agar dilution; methicillin resistant strains 48 hours at 30° C.; read-out: minimum inhibitory concentration (MIC)
Protocol: as §1

[8] = test system: Staphylococcus aureus 179; assay: as above; conditions: resistant strain Staphylococcus aureus 179; 2-fold agar dilution; methicillin resistant strains 48 hours at 30° C.; read-out: minimum inhibitory concentration (MIC)
Protocol: as §1

[9] = test system: Staphylococcus aureus 88E; assay: as above; conditions: resistant strain Staphylococcus aureus 88E; 2-fold agar dilution; methicillin resistant strains 48 hours at 30° C.; read-out: minimum inhibitory concentration (MIC)
Protocol: as §1

[10] = test system: Staphylococcus aureus 701E; assay: as above; conditions: resistant strain Staphylococcus aureus 701E; 2-fold agar dilution; methicillin resistant strains 48 hours at 30° C.; read-out: minimum inhibitory concentration (MIC)
Protocol: as §1

[11] = test system: Staphylococcus aureus 693E; assay: as above; conditions: resistant strain Staphylococcus aureus 693E; 2-fold agar dilution; methicillin resistant strains 48 hours at 30° C.; read-out: minimum inhibitory concentration (MIC)
Protocol: as §1

[12] = test system: Staphylococcus aureus 694E; assay: as above; conditions: resistant strain Staphylococcus aureus 694E; 2-fold agar dilution; methicillin resistant strains 48 hours at 30° C.; read-out: minimum inhibitory concentration (MIC)
Protocol: as §1

[13] = test system: Staphylococcus aureus 695E; assay: as above; conditions: resistant strain Staphylococcus aureus 695E; 2-fold agar dilution; methicillin resistant strains 48 hours at 30° C.; read-out: minimum inhibitory concentration (MIC)
Protocol: as §1

[14] = test system: Staphylococcus epidermidis 291; assay: as above; conditions: resistant strain Staphylococcus epidermidis 291; 2-fold agar dilution; methicillin resistant strains 48 hours at 30° C.; read-out: minimum inhibitory concentration (MIC)
Protocol: as §1

[15] = test system: Staphylococcus aureus 121E; assay: as above; conditions: resistant strain Staphylococcus aureus 121E; 2-fold agar dilution; methicillin resistant strains 48 hours at 30° C.; read-out: minimum inhibitory concentration (MIC)
Protocol: as §1

[16] = test system: Staphylococcus aureus 690E; assay: as above; conditions: resistant strain Staphylococcus aureus 690E; 2-fold agar dilution; methicillin resistant strains 48 hours at 30° C.; read-out: minimum inhibitory concentration (MIC)
Protocol: as §1

[17] = test system: Staphylococcus aureus 303; assay: as above; conditions: resistant strain Staphylococcus aureus 303; 2-fold agar dilution; methicillin resistant strains 48 hours at 30° C.; read-out: minimum inhibitory concentration (MIC)
Protocol: as §1

[18] = test system: Staphylococcus aureus 256E; assay: as above; conditions: resistant strain Staphylococcus aureus 256E; 2-fold agar dilution; methicillin resistant strains 48 hours at 30° C.; read-out: minimum inhibitory concentration (MIC)
Protocol: as §1

[19] = test system: Staphylococcus aureus 208E; assay: as above; conditions: resistant strain Staphylococcus aureus 208E; 2-fold agar dilution; methicillin resistant strains 48 hours at 30° C.; read-out: minimum inhibitory concentration (MIC)
Protocol: as §1

[20] = test system: Klebsiella oxytoca 1082E; assay: In vitro antibacterial activity (MIC), agar dilution; conditions: 2-fold agar dilution, Muller-Hinton agar, 18 hours at 37° C., read-out: minimum inhibitory concentration (MIC)
Protocol: as §1

[21] = test system: Streptococcus pyogens 308A; assay: as above; conditions: 2-fold agar dilution, Muller-Hinton agar, 18 hours at 37° C., read-out: minimum inhibitory concentration (MIC)
Protocol: as §1

[22] = test system: Enterobacter clocae 1321E; assay: as above; conditions: 2-fold agar dilution, Muller-Hinton agar, 18 hours at 37° C., read-out: minimum inhibitory concentration (MIC)
Protocol: as §1

[23] = test system: Enterobacter clocae P99; assay: as above; conditions: 2-fold agar dilution, Muller-Hinton agar, 18 hours at 37° C., read-out: minimum inhibitory concentration (MIC)
Protocol: as §1

[24] = test system: Esherichia coli 1507E; assay: as above; conditions: 2-fold agar dilution, Muller-Hinton agar, 18 hours at 37° C., read-out: minimum inhibitory concentration (MIC)
Protocol: as §1

[25] = test system: Salmonella typhimurium; assay: as above; conditions: Salmonella enterica, 2-fold agar dilution, Muller-Hinton agar, 18 hours at 37° C., read-out: minimum inhibitory concentration (MIC)
Protocol: as §1

[26] = test system: Pseudomonas aeruginosa 9027; assay: as above; conditions: 2-fold agar dilution, Muller-Hinton agar, 18 hours at 37° C., read-out: minimum inhibitory concentration (MIC)
Protocol: as §1

[27] = test system: Pseudomonas aeruginosa 1771M; assay: as above; conditions: Pseudomonas aeruginosa, 1771M, 18 h, read-out: minimum inhibitory concentration (MIC)
Protocol: as §1

[28] = test system: Streptococcus faecium MD 8b; assay: as above; conditions: Enterococcus faecium, MD8B, 2-fold agar dilution, Muller-Hinton agar, 18 hours at 37° C., read-out: minimum inhibitory concentration (MIC)
Protocol: as §1

[29] = test system: Klebsiella aerogenes 1522E; assay: as above; conditions: 2-fold agar dilution, Muller-Hinton agar, 18 hours at 37° C., read-out: minimum inhibitory concentration (MIC)
Protocol: as §1

[30] = test system: Esherichia coli 078; assay: as above; conditions: 2-fold agar dilution, Muller-Hinton agar, 18 hours at 37° C., read-out: minimum inhibitory concentration (MIC)
Protocol: as §1

[31] = test system: Esherichia coli TEM; assay: as above; conditions: 2-fold agar dilution, Muller-Hinton agar, 18 hours at 37° C., read-out: minimum inhibitory concentration (MIC)
Protocol: as §1

[32] = test system: Streptococcus pyogens 77A; assay: as above; conditions: 2-fold agar dilution, Muller-Hinton agar, 18 hours at 37° C., read-out: minimum inhibitory concentration (MIC)
Protocol: as §1

[33] = test system: Pseudomonas aeruginosa 1592E; assay: as above; conditions: 2-fold agar dilution, Muller-Hinton agar, 18 hours at 37° C., read-out: minimum inhibitory concentration (MIC)
Protocol: as §1

[34] = test system: Staphylococcus aureus SG511; assay: as above; conditions: 2-fold agar dilution, Muller-Hinton agar, 18 hours at 37° C., read-out: minimum inhibitory concentration (MIC)
Protocol: as §1

[35] = test system: Pseudomonas aeruginosa 1771; assay: as above; conditions: 2-fold agar dilution, Muller-Hinton agar, 18 hours at 37° C., read-out: minimum inhibitory concentration (MIC)
Protocol: as §1

[36] = test system: Esherichia coli DC0; assay: as above; conditions: 2-fold agar dilution, Muller-Hinton agar, 18 hours at 37° C., read-out: minimum inhibitory concentration (MIC)
Protocol: as §1

[37] = test system: Staphylococcus aureus 503; assay: as above; conditions: 2-fold agar dilution, Muller-Hinton agar, 18 hours at 37° C., read-out: minimum inhibitory concentration (MIC)
Protocol: as §1

[38] = test system: Staphylococcus aureus 285; assay: as above; conditions: 2-fold agar dilution, Muller-Hinton agar, 18 hours at 37° C., read-out: minimum inhibitory concentration (MIC)
Protocol: as §1

[39] = test system: Esherichia coli DC2; assay: as above; conditions: 2-fold agar dilution, Muller-Hinton agar, 18 hours at 37° C., read-out: minimum inhibitory concentration (MIC)
Protocol: as §1

SMILES | MIC [20] | MIC [21] | MIC [22] | MIC [23] | MIC [24] | MIC [25] | MIC [26] | MIC [27] | MIC [28] | MIC [29] | MIC [30] | MIC [31] | MIC [32] | MIC [33] | MIC [34] | MIC [35] | MIC [36] | MIC [37] | MIC [38] | other results
CON=C1CN(c2c(F)c(N)c3c(=O)c(C(=O)O)cn(C4CC4)c3c2F)CC12CN(C)C2 [Example 11, 1-Cyclopropyl-5-amino-6,8-difluoro-7-[8-(methoxyimino)-2-methyl-2,6-diazaspiro[3,4]oct-6-yl]-4-oxo-1,4-dihydro-3-quinolinecarboxylic acid] | < 0.002 µg/mL | 0.013 µg/mL (≈ 0.0291 µM) | 0.004 µg/mL (≈ 0.00894 µM) | 0.013 µg/mL (≈ 0.0291 µM) | 0.013 µg/mL (≈ 0.0291 µM) | 0.007 µg/mL (≈ 0.0156 µM) | 0.781 µg/mL (≈ 1.75 µM) | 0.391 µg/mL (≈ 0.874 µM) | 0.049 µg/mL (≈ 0.11 µM) | 0.049 µg/mL (≈ 0.11 µM) | < 0.002 µg/mL | 0.013 µg/mL (≈ 0.0291 µM) | 0.004 µg/mL (≈ 0.00894 µM) | 0.781 µg/mL (≈ 1.75 µM) | < 0.002 µg/mL | 0.781 µg/mL (≈ 1.75 µM) | 0.098 µg/mL (≈ 0.219 µM) | 0.004 µg/mL (≈ 0.00894 µM) | 0.007 µg/mL (≈ 0.0156 µM) | MIC [1]: 0.007 µg/mL (≈ 0.0156 µM); MIC [2]: 0.195 µg/mL (≈ 0.436 µM); MIC [3]: 0.781 µg/mL (≈ 1.75 µM); MIC [4]: 0.195 µg/mL (≈ 0.436 µM); MIC [5]: 0.004 µg/mL (≈ 0.00894 µM); MIC [6]: 0.013 µg/mL (≈ 0.0291 µM); MIC [7]: 0.195 µg/mL (≈ 0.436 µM); MIC [8]: 0.195 µg/mL (≈ 0.436 µM); MIC [9]: 0.007 µg/mL (≈ 0.0156 µM); MIC [10]: 0.013 µg/mL (≈ 0.0291 µM); MIC [11]: 0.013 µg/mL (≈ 0.0291 µM); MIC [12]: 0.013 µg/mL (≈ 0.0291 µM); MIC [13]: 0.013 µg/mL (≈ 0.0291 µM); MIC [14]: 0.781 µg/mL (≈ 1.75 µM); MIC [15]: 0.013 µg/mL (≈ 0.0291 µM); MIC [16]: 0.007 µg/mL (≈ 0.0156 µM); MIC [17]: 0.195 µg/mL (≈ 0.436 µM); MIC [18]: 0.007 µg/mL (≈ 0.0156 µM); MIC [19]: 0.013 µg/mL (≈ 0.0291 µM)
CON=C1CN(c2cc3c(cc2F)c(=O)c(C(=O)O)cn3-c2ccc(F)cc2F)CC12CNC2.CS(=O)(=O)O.CS(=O)(=O)O [Example 6, 1-(2,4-Difluorophenyl)-6-fluoro-7-[8-(methoxyimino)-2,6-diazaspiro[3,4]oct-6-yl]-4-oxo-1,4-dihydro-3-quinolinecarboxylic acid dimethanesulfonate] | 0.013 µg/mL | 0.195 µg/mL | 0.098 µg/mL | 0.098 µg/mL | 0.195 µg/mL | 0.049 µg/mL | 3.12 µg/mL | 1.56 µg/mL | 0.195 µg/mL | 0.391 µg/mL | 0.049 µg/mL | 0.195 µg/mL | 0.013 µg/mL | 1.56 µg/mL | 0.049 µg/mL | 1.56 µg/mL | 0.781 µg/mL | 0.049 µg/mL | 0.098 µg/mL | MIC [39]: 0.098 µg/mL
